What all share (experiment): relative viability (nuclei count vs DMSO), 5 days (fraction); higher = more cells survive
Compound in one experiment: O=C(/C=C/c1ccccc1)NC(NC(=S)Nc1cccc2cccnc12)C(Cl)(Cl)Cl [Salubrinal]
In a few lines: (§1)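 On vehicle-anchored 1536-well plates, lung cancer cell lines held overnight at 37 °C were pinned with five library-drug doses (not always all listed) spaced by √10. With no medium change over 5 days, they were then fixed, permeabilised and Hoechst-stained in one step and imaged at 4×. MetaXpress counted nuclei, and viability is the median across plates of treated-well over vehicle-well nuclei. Acceptance needed control CV below 25% and at least one doubling.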

Compound in experiment [1]: Cc1ccc2nc(NCCN)c3ncc(C)n3c2c1
In a few lines: as §1

Compound in the experiment “Salubrinal + Palbociclib”: O=C(/C=C/c1ccccc1)NC(NC(=S)Nc1cccc2cccnc12)C(Cl)(Cl)Cl [Salubrinal] + CC(=O)c1c(C)c2cnc(Nc3ccc(N4CCNCC4)cn3)nc2n(C2CCCC2)c1=O [Palbociclib] (partner 0.5 µM)
In a few lines: (§2)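 Five library-drug doses in √10 steps were combined with a fixed anchor-drug dose, or a single drug was given alone, by pin tool to lung cancer cell lines in 1536-well plates the day after seeding. Nuclei were stained and counted after 5 days. Relative viability is the nuclei count in treated wells over that in vehicle wells, taken as the median of duplicate plates.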

Compound in experiment [2]: Cc1ccc2nc(NCCN)c3ncc(C)n3c2c1 + COc1cc2c(Oc3ccc(NC(=O)C4(C(=O)Nc5ccc(F)cc5)CC4)cc3F)ccnc2cc1OCCCN1CCOCC1 [Foretinib] (partner 0.25 µM)
In outline: as §2

For UMC-11, the relative viability stood at 0.901 in the experiment with Salubrinal (0.08 µM); 0.869 with Salubrinal (0.253 µM); 1.09 in the experiment with Salubrinal (0.8 µM); 1.01 with Salubrinal (2.53 µM); 1.03 with Salubrinal (8 µM); 1.01 in experiment [1] (0.04 µM). Also, the relative viability in experiment [1] (0.1265 µM) was found to be 0.918; in experiment [1] (0.4 µM), 0.939; in experiment [1] (1.265 µM), 0.965; in experiment [1] (4 µM), 0.946; in the experiment with Salubrinal + Palbociclib (first compound 0.08 µM), 0.304; in the experiment with Salubrinal + Palbociclib (first compound 0.253 µM), 0.344. The relative viability with Salubrinal + Palbociclib (first compound 0.8 µM) came out at 0.349; with Salubrinal + Palbociclib (first compound 2.53 µM), 0.313; in the experiment with Salubrinal + Palbociclib (first compound 8 µM), 0.299; in experiment [2] (first compound 0.04 µM) it was 1.02; in experiment [2] (first compound 0.1265 µM) it was 0.999; in experiment [2] (first compound 0.4 µM) it was 1.02. For the same cell line, the relative viability in experiment [2] (first compound 1.265 µM) came out at 1.01; in experiment [2] (first compound 4 µM) it was 0.945.

For the origin of these results see the supplement of paper PMC10307832.
